The assay addresses T1, interaction of ICAM-1 with the Leukointegrin CD18/CD11a (LFA-1) (Homo sapiens, UniProt P05107+P20701).
T1 construct: endogenous in cells; sICAM-1: made in house, secreted from transfected CHO DUX cells
The assay can be described thus: Assay to determine inhibition of LFA-1 binding to ICAM-1 (immunopurified LFA-1 on plate-bound sICAM-1, ELISA readout). As to conditions: values marked e approximated from incomplete dose-response curve.

Kd data for one compound are collected here from patent USRE38132E1, “Phenylpyrrolidines, phenylimidazolidines,3-phenyl-1,3-oxizolidines and 3-phenyl-1,3-thiazolidines and their use in the treatment of inflammatory disease” (Boehringer Ingelheim Pharmaceuticals, Inc., priority 1997, dated 2003).

T1 sequence (P20701 26-1170): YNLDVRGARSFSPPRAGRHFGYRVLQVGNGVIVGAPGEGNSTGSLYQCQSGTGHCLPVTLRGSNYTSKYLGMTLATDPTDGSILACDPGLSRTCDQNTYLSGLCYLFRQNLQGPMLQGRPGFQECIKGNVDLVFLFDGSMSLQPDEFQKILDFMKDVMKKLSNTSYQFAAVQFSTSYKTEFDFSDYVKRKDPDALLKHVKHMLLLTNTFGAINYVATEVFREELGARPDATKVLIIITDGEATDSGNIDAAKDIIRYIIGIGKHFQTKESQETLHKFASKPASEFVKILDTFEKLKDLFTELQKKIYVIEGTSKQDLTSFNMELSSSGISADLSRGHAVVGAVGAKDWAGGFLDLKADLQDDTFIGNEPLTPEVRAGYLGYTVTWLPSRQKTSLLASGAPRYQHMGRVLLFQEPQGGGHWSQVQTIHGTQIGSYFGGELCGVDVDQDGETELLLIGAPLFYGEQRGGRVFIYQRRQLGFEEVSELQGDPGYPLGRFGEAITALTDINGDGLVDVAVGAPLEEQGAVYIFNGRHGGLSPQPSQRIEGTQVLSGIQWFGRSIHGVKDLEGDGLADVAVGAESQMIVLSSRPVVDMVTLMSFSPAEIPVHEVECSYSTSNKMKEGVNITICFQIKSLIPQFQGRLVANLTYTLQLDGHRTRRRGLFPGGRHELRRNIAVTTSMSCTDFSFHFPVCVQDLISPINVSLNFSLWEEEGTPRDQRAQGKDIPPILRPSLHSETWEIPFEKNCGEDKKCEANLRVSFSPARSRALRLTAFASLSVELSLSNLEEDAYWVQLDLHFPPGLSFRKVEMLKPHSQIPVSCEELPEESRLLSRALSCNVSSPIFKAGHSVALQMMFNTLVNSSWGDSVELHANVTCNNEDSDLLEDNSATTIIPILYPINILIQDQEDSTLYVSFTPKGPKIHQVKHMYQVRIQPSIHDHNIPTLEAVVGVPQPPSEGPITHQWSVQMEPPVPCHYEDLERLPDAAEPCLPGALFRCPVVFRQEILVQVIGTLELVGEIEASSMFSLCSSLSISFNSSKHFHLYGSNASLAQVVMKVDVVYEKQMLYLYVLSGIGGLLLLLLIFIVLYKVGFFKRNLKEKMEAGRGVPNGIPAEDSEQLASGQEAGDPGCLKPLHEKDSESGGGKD
T1 sequence (P05107 23-769): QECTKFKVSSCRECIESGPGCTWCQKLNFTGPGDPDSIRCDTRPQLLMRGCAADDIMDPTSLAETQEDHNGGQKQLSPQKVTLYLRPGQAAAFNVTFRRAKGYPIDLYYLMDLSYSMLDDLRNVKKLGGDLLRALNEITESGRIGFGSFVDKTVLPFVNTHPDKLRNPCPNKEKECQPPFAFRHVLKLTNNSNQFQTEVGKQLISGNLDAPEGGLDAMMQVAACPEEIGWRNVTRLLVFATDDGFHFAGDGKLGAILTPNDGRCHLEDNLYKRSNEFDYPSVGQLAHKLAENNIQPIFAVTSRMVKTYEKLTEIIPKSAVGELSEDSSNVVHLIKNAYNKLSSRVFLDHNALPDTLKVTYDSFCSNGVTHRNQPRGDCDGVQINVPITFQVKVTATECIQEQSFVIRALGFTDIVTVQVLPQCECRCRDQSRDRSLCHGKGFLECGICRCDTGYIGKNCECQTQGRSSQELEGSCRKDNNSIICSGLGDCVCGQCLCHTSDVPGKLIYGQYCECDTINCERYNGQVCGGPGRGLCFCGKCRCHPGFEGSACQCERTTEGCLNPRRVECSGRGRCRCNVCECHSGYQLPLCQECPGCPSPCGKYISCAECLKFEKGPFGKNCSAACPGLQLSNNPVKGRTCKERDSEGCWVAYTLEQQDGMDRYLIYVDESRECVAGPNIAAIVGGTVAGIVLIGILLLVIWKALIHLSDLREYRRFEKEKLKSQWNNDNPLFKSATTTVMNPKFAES

As a reminder, the Kd is the equilibrium constant for the complex coming apart. Low values mean a tighter complex, high ones a looser complex. Take `CC(=O)N1C(=O)N(c2cc(Cl)cc(Cl)c2)C(=O)[C@@]1(C)Cc1ccc(Br)cc1` [Example 102]: the Kd turned out to be 60 nM. This lies in the double-digit nanomolar range.
